In ChEMBL document CHEMBL3576773, “Studies on the ATP Binding Site of Fyn Kinase for the Identification of New Inhibitors and Their Evaluation as Potential Agents against Tauopathies and Tumors” (J Med Chem, 2015):
Blank lines part the entries; values can stand above or below the compound they belong to.

Columns and labels:
[1] = molecular target: Tyrosine-protein kinase Fyn (Homo sapiens, UniProt P06241); assay: Inhibition of human recombinant full-length Fyn using Src substrate peptide after 15 mins incubation by MicroBeta liquid scintillation counting analysis
[2] = Permeability of the compound by BBB-PAMPA-LC-UV analysis; type: physicochemical
[3] = Permeability of the compound by PAMPA-LC-UV analysis; type: physicochemical
[4] = Metabolic stability in human liver microsomes measured after 1 hr in presence of NADPH generating system; type: ADME; details: read-out: Stability
[5] = system: K562; assay: Antiproliferative activity against human K562 cells assessed as vitality after 72 hrs by automatic cell counting analysis; type: functional, cell-based; details: K562, 72 h
[6] = system: MDA-MB-231; assay: Anticancer activity against human MDA-MB-231 cells assessed as cell growth inhibition after 20 to 70 hrs by Real-time RTCA iCELLgence system; type: functional, cell-based
[7] = Induction of apoptosis in Ph+ CML patient CD34+ early hematopoietic progenitor cells assessed as increase in apoptotic level at 2 uM after 48 hrs by Annexin V-FITC/Propidium iodide staining based FACSCalibur flow cytometry; type: functional, Homo sapiens
[8] = Cytotoxicity against human fibroblast at 2 uM after 48 hrs; type: cell-based
[9] = Anticancer activity against human U87 cells assessed as cell growth inhibition after 20 to 70 hrs by Real-time RTCA iCELLgence system; type: functional, cell-based, U-87MG ATCC; details: U-87 MG
[10] = system: K562; assay: Induction of apoptosis in human K562 cells assessed as accumulation of hypodiploid cells at 0.1 uM
[11] = system: Liver microsome; assay: Drug formation in human liver microsomes treated with 1-(2-Chloro-2-phenylethyl)-3-(4-methyoxyphenyl)-1H-pyrazolo-[3,4-d]pyrimidin-4-amine measured after 1 hr by LC-UV-MS analysis; type: ADME
[12] = system: Liver microsome; assay: Drug formation in human liver microsomes treated with 1-(2-Chloro-2-phenylethyl)-3-(4-fluorophenyl)-1H-pyrazolo[3,4-d]pyrimidin-4-amine measured after 1 hr by LC-UV-MS analysis; type: ADME
[13] = system: Liver microsome; assay: Drug formation in human liver microsomes treated with 3-(4-Chlorophenyl)-1-(2-chloro-2-phenylethyl)-1H-pyrazolo[3,4-d]pyrimidin-4-amine measured after 1 hr by LC-UV-MS analysis; type: ADME
[14] = system: Liver microsome; assay: Drug formation in human liver microsomes treated with 1-(2-Chloro-2-phenylethyl)-3-(4-methylphenyl)-1H-pyrazolo[3,4-d]pyrimidin-4-amine measured after 1 hr by LC-UV-MS analysis; type: ADME
[15] = system: Liver microsome; assay: Drug formation in human liver microsomes treated with 1-(2-Chloro-2-phenylethyl)-3-phenyl-1H-pyrazolo[3,4-d]-pyrimidin-4-amine hydrocloride measured after 1 hr by LC-UV-MS analysis; type: ADME

Tyrosine-protein kinase Fyn, sequence (P06241 whole entry): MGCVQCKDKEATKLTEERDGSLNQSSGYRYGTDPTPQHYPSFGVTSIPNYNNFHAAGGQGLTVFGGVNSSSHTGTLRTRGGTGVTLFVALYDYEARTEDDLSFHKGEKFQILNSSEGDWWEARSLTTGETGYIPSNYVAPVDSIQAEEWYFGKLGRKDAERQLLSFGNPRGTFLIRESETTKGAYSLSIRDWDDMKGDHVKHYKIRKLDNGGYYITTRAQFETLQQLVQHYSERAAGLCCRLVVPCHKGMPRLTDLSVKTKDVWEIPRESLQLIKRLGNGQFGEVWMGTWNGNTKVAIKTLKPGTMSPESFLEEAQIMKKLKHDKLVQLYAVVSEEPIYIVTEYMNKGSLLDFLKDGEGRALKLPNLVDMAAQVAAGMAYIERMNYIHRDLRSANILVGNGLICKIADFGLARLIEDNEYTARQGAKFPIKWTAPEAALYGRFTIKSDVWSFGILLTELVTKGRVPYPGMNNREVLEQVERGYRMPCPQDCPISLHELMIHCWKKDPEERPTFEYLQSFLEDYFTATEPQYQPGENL

Compound: ClC(Cn1ncc2c(NCCc3ccccc3)nc(SCCN3CCOCC3)nc21)c1ccccc1 (stereo not drawn)
Ki [1]: Not Active

Compound: Fc1cccc(Nc2nc(SC3CCCC3)nc3c2cnn3CC(Cl)c2ccccc2)c1 (stereo not drawn)
Ki [1]: Not Active

Compound: Clc1cccc(Nc2nc(SC3CCCC3)nc3c2cnn3CC(Cl)c2ccccc2)c1 (stereo not drawn)
Ki [1]: Not Active

Compound: CCCCSc1nc(NCCc2ccccc2)c2cnn(CC(Cl)c3ccccc3)c2n1 (stereo not drawn)
Ki [1]: Not Active

Compound: ClC(Cn1ncc2c(NCCc3ccccc3)nc(SC3CCCC3)nc21)c1ccccc1 (stereo not drawn)
Ki [1]: Not Active

Compound: CCC(C)Sc1nc(NCc2ccccc2)c2cnn(CC(Cl)c3ccccc3)c2n1 (stereo not drawn)
Ki [1]: Not Active

Compound: CCC(C)Sc1nc(NCCc2ccccc2)c2cnn(CC(Cl)c3ccccc3)c2n1 (stereo not drawn)
Ki [1]: Not Active

Compound: COc1ccc(-c2nn(CC(Cl)c3ccccc3)c3ncnc(N)c23)cc1 (stereo not drawn)
Papp [2]: 14.5 ×10⁻⁶ cm/s
Papp [3]: 17.5 ×10⁻⁶ cm/s
remaining at 1 h [4]: 95.6%

Compound: CNc1nc(SC)nc2c1c(-c1ccccc1)nn2CCc1ccccc1
Ki ([1]; read-out: Ki): 10000 nM

Compound: COC(Cn1nc(-c2ccccc2)c2c(N)nc(SC)nc21)c1ccccc1 (stereo not drawn)
Ki ([1]; read-out: Ki): 10000 nM

Compound: CCc1ccc2[nH]c(=O)c(CN(Cc3ccc4c(c3)OCO4)C(=O)Nc3ccc(F)cc3)cc2c1
Ki ([1]; read-out: Ki): 2100 nM

Compound: CCOc1ccc(-c2[nH]ncc2CN2CCN(S(=O)(=O)N3CCCC3)CC2)cc1
Ki ([1]; read-out: Ki): 2250 nM

Compound: Cc1ccc(-c2cc(-c3ccccc3)c3c(N)c(C(=O)Nc4ccc(F)cc4)sc3n2)cc1
Ki [1]: Not Active

Now from value to compound, other results behind:

Ki ([1]; read-out: Ki): 900 nM
Papp [2]: 9.5 ×10⁻⁶ cm/s
Papp [3]: 12.8 ×10⁻⁶ cm/s
remaining at 1 h [4]: 78.9%
Compound: Nc1ncnc2c1c(-c1ccccc1)nn2CC(Cl)c1ccccc1 (stereo not drawn)

IC50 [5]: 12600 nM
Papp [2]: 12.9 ×10⁻⁶ cm/s
Papp [3]: 16.5 ×10⁻⁶ cm/s
remaining at 1 h [4]: 95.7%
Compound: Nc1ncnc2c1c(-c1ccc(F)cc1)nn2CC(Cl)c1ccccc1 (stereo not drawn)

IC50 [6]: 3700 nM
IC50 [5]: 560 nM
Papp [2]: 8.4 ×10⁻⁶ cm/s
Papp [3]: 9.9 ×10⁻⁶ cm/s
remaining at 1 h [4]: 85.2%
Compound: Nc1ncnc2c1c(-c1ccc(Cl)cc1)nn2CC(Cl)c1ccccc1 (stereo not drawn)
Activity [7]: 35%
Activity [8]: Non-toxic
IC50 [9]: 74 nM

IC50 [6]: 8300 nM
IC50 [5]: 300 nM
Papp [2]: 11.5 ×10⁻⁶ cm/s
Papp [3]: 10.9 ×10⁻⁶ cm/s
remaining at 1 h [4]: 90%
Compound: Cc1ccc(-c2nn(CC(Cl)c3ccccc3)c3ncnc(N)c23)cc1 (stereo not drawn)
Activity [10]: 50%
Activity [7]: 30%
Activity [8]: Non-toxic
IC50 [9]: 780 nM

Ki ([1]; read-out: Ki): 780 nM
Compound: CC(Cn1nc(-c2ccc(Cl)cc2)c2c(N)ncnc21)c1ccccc1 (stereo not drawn)

Ki ([1]; read-out: Ki): 10000 nM
Compound: CC(=O)c1ccc(-c2nn(CC(C)c3ccccc3)c3ncnc(N)c23)cc1 (stereo not drawn)

Drug metabolism [11]: metabolite_detected
Drug metabolism [12]: metabolite_detected
Drug metabolism [13]: metabolite_detected
Drug metabolism [14]: metabolite_detected
Drug metabolism [15]: metabolite_detected
Compound: Nc1ncnc2c1c(-c1ccccc1)nn2CC(=O)c1ccccc1

Drug metabolism [11]: metabolite_detected
Drug metabolism [12]: metabolite_detected
Drug metabolism [13]: metabolite_detected
Drug metabolism [14]: metabolite_detected
Drug metabolism [15]: metabolite_detected
Compound: Nc1ncnc2c1c(-c1ccccc1)nn2CC(O)c1ccccc1 (stereo not drawn)

Drug metabolism [11]: metabolite_detected
Compound: Nc1ncnc2c1c(-c1ccc(O)cc1)nn2CC(Cl)c1ccccc1 (stereo not drawn)
